Data published in patent US4822790A, “1-Sulfo-2-oxoazetidine derivatives and their production” (Takeda Chemical Industries, Ltd., priority 1980, dated 1989).

Experiments:
Format in all cases: cell-based
[1] = system: Staphylococcus aureus 1840; assay: Antibacterial test (MIC), Staphylococcus aureus 1840; settings: medium TSA
Text: (§1) The following is media and compounds employed in the antibacterial test.
(§2) TSA=Trypticase soy agar [Baltimore Biologicals (U.S.A.)]
(§3) B-TSA=Blood trypticase soy agar

Escherichia coli T-7 = assay: Antibacterial test (MIC), Escherichia coli T-7; settings: medium TSA
Text: as §1, §2, §3

[2] = system: Streptococcus pyogenes E-14; assay: Antibacterial test (MIC), Streptococcus pyogenes E-14; settings: medium B-TSA
Text: as §1, §2, §3

[3] = system: Streptococcus faecium IFO 3128; assay: Antibacterial test (MIC), Streptococcus faecium IFO 3128; settings: medium B-TSA
Text: as §1, §2, §3

[4] = system: Enterobacter cloacae IFO 12937; assay: Antibacterial test (MIC), Enterobacter cloacae IFO 12937; settings: medium TSA
Text: as §1, §2, §3

[5] = system: Serratia marcescens IFO 12648; assay: Antibacterial test (MIC), Serratia marcescens IFO 12648; settings: medium TSA
Text: as §1, §2, §3

[6] = system: Streptococcus mitis America; assay: Antibacterial test (MIC), Streptococcus mitis America; settings: medium B-TSA
Text: as §1, §2, §3

[7] = system: Staphylococcus aureus FDA209P; assay: Antibacterial test (MIC), Staphylococcus aureus FDA209P
Text: as §1, §2, §3

[8] = system: Citrobacter freundii IFO 12681; assay: Antibacterial test (MIC), Citrobacter freundii IFO 12681; settings: medium TSA
Text: as §1, §2, §3

[9] = system: Staphylococcus aureus 308A-1; assay: Antibacterial test (MIC), Staphylococcus aureus 308A-1; settings: medium TSA
Text: as §1, §2, §3

[10] = system: Proteus vulgaris IFO 3988; assay: Antibacterial test (MIC), Proteus vulgaris IFO 3988; settings: medium TSA
Text: as §1, §2, §3

[11] = system: Corynebacterium diphtheriae Toronto; assay: Antibacterial test (MIC), Corynebacterium diphtheriae Toronto; settings: medium B-TSA
Text: as §1, §2, §3

Klebsiella pneumoniae DT = assay: Antibacterial test (MIC), Klebsiella pneumoniae DT; settings: medium TSA
Text: as §1, §2, §3

[12] = system: Proteus morganii IFO 3168; assay: Antibacterial test (MIC), Proteus morganii IFO 3168; settings: medium TSA
Text: as §1, §2, §3

[13] = system: Pseudomonas aeruginosa IFO 3455; assay: Antibacterial test (MIC), Pseudomonas aeruginosa IFO 3455; settings: medium TSA
Text: as §1, §2, §3

[14] = system: Acinetobacter calcoaceticus IFO 13006; assay: Antibacterial test (MIC), Acinetobacter calcoaceticus IFO 13006; settings: medium TSA
Text: as §1, §2, §3

[15] = system: Streptococcus pyogenes S-8; assay: Antibacterial test (MIC), Streptococcus pyogenes S-8; settings: medium B-TSA
Text: as §1, §2, §3

Escherichia coli 0-111 = assay: Antibacterial test (MIC), Escherichia coli 0-111; settings: medium TSA
Text: as §1, §2, §3

[16] = system: Bordetella bronchiseptica Sagami; assay: Antibacterial test (MIC), Bordetella bronchiseptica Sagami; settings: medium B-TSA
Text: as §1, §2, §3

[17] = system: Escherichia coli NIHJ JC-2; assay: Antibacterial test (MIC), Escherichia coli NIHJ JC-2; settings: medium TSA
Text: as §1, §2, §3

Candida albicans TA = assay: Antibacterial test (MIC), Candida albicans TA; settings: medium TSA
Text: as §1, §2, §3

[18] = system: Proteus mirabilis IFO 3849; assay: Antibacterial test (MIC), Proteus mirabilis IFO 3849; settings: medium TSA
Text: as §1, §2, §3

[19] = system: Streptococcus pneumoniae Type I; assay: Antibacterial test (MIC), Streptococcus pneumoniae Type I; settings: medium B-TSA
Text: as §1, §2, §3

[20] = system: Pseudomonas aeruginosa U 31; assay: Antibacterial test (MIC), Pseudomonas aeruginosa U 31; settings: medium TSA
Text: as §1, §2, §3

In the case of `O=C(NC1CN(S(=O)(=O)[O-])C1=O)C(NC(=O)N1CCN(N=Cc2ccco2)C1=O)c1cccs1.[Na+]` (stereo not drawn) [Compound L, Sodium 3-[2-[(2-oxo-3-furfurylideneaminoimidazolidin-1-yl)-carboxamido]-2-thienylacetamido]-2-oxoazetidine-1-sulfonate], the “Minimum inhibitory concentration (MIC)” value [1] is reported as 25 µg/mL, the “Minimum inhibitory concentration (MIC)” value (Escherichia coli T-7) is reported as > 100 µg/mL and the “Minimum inhibitory concentration (MIC)” value [2] is reported as 0.78 µg/mL. For the same compound, the “Minimum inhibitory concentration (MIC)” value [3] was > 100 µg/mL, the “Minimum inhibitory concentration (MIC)” value [4] was 25 µg/mL and the “Minimum inhibitory concentration (MIC)” value [5] was 1.56 µg/mL. For the same compound, the “Minimum inhibitory concentration (MIC)” value [6] was 6.25 µg/mL, the “Minimum inhibitory concentration (MIC)” value ([7]; medium B-TSA) was 6.25 µg/mL and the “Minimum inhibitory concentration (MIC)” value ([7]; medium TSA) was 6.25 µg/mL. For the same compound, the “Minimum inhibitory concentration (MIC)” value [8] was 1.56 µg/mL, the “Minimum inhibitory concentration (MIC)” value [9] was 3.13 µg/mL and the “Minimum inhibitory concentration (MIC)” value [10] was 0.2 µg/mL. For the same compound, the “Minimum inhibitory concentration (MIC)” value [11] was 1.56 µg/mL, the “Minimum inhibitory concentration (MIC)” value (Klebsiella pneumoniae DT) was < 0.1 µg/mL and the “Minimum inhibitory concentration (MIC)” value [12] was 12.5 µg/mL. The “Minimum inhibitory concentration (MIC)” value [13] was 3.13 µg/mL, the “Minimum inhibitory concentration (MIC)” value [14] was 50 µg/mL and the “Minimum inhibitory concentration (MIC)” value [15] was 0.78 µg/mL. For the same compound, the “Minimum inhibitory concentration (MIC)” value (Escherichia coli 0-111) was < 0.1 µg/mL, the “Minimum inhibitory concentration (MIC)” value [16] was > 100 µg/mL and the “Minimum inhibitory concentration (MIC)” value [17] was 1.56 µg/mL. For the same compound, the “Minimum inhibitory concentration (MIC)” value (Candida albicans TA) was > 100 µg/mL, the “Minimum inhibitory concentration (MIC)” value [18] was 0.78 µg/mL and the “Minimum inhibitory concentration (MIC)” value [19] was 1.56 µg/mL. For the same compound, the “Minimum inhibitory concentration (MIC)” value [20] was > 100 µg/mL.
`CCN1CCN(C(=O)NC(C(=O)NC2CN(S(=O)(=O)[O-])C2=O)c2cccs2)C(=O)C1=O.[Na+]` (racemic) [Compound E, Sodium 3-[DL-2-(4-ethyl-2,3-dioxo-1-piperazinocarboxamido)-2-thienylacetamido]-2-oxoazetidine-1-sulfonate] was tested, and the “Minimum inhibitory concentration (MIC)” value [1] was 25 µg/mL, the “Minimum inhibitory concentration (MIC)” value (Escherichia coli T-7) was > 100 µg/mL and the “Minimum inhibitory concentration (MIC)” value [2] was 1.56 µg/mL. For the same compound, the “Minimum inhibitory concentration (MIC)” value [3] was > 100 µg/mL, the “Minimum inhibitory concentration (MIC)” value [4] was 3.13 µg/mL and the “Minimum inhibitory concentration (MIC)” value [5] was 3.13 µg/mL. For the same compound, the “Minimum inhibitory concentration (MIC)” value [6] was 25 µg/mL, the “Minimum inhibitory concentration (MIC)” value ([7]; medium B-TSA) was 6.25 µg/mL and the “Minimum inhibitory concentration (MIC)” value ([7]; medium TSA) was 6.25 µg/mL. For the same compound, the “Minimum inhibitory concentration (MIC)” value [8] was 3.13 µg/mL, the “Minimum inhibitory concentration (MIC)” value [9] was 6.25 µg/mL and the “Minimum inhibitory concentration (MIC)” value [10] was < 0.1 µg/mL. The “Minimum inhibitory concentration (MIC)” value [11] was 0.39 µg/mL, the “Minimum inhibitory concentration (MIC)” value (Klebsiella pneumoniae DT) was 0.78 µg/mL and the “Minimum inhibitory concentration (MIC)” value [12] was 12.5 µg/mL. For the same compound, the “Minimum inhibitory concentration (MIC)” value [13] was 3.13 µg/mL, the “Minimum inhibitory concentration (MIC)” value [14] was 50 µg/mL and the “Minimum inhibitory concentration (MIC)” value [15] was 3.13 µg/mL. For the same compound, the “Minimum inhibitory concentration (MIC)” value (Escherichia coli 0-111) was 0.2 µg/mL, the “Minimum inhibitory concentration (MIC)” value [16] was > 100 µg/mL and the “Minimum inhibitory concentration (MIC)” value [17] was 1.56 µg/mL. For the same compound, the “Minimum inhibitory concentration (MIC)” value (Candida albicans TA) was > 100 µg/mL, the “Minimum inhibitory concentration (MIC)” value [18] was 0.78 µg/mL and the “Minimum inhibitory concentration (MIC)” value [19] was 3.13 µg/mL. The “Minimum inhibitory concentration (MIC)” value [20] was > 100 µg/mL.
In the case of `CCCCCCCCN1CCN(C(=O)NC(C(=O)NC2CN(S(=O)(=O)[O-])C2=O)c2cccs2)C(=O)C1=O.[Na+]` (stereo not drawn) [Compound J, Sodium 3-[2-(4-n-octyl-2,3-dioxo-1-piperazinocarboxamido)-2-thienylacetamido]-2-oxoazetidine-1-sulfonate], the “Minimum inhibitory concentration (MIC)” value [1] is reported as 6.25 µg/mL, the “Minimum inhibitory concentration (MIC)” value (Escherichia coli T-7) is reported as > 100 µg/mL and the “Minimum inhibitory concentration (MIC)” value [2] is reported as 1.56 µg/mL. For the same compound, the “Minimum inhibitory concentration (MIC)” value [3] was > 100 µg/mL, the “Minimum inhibitory concentration (MIC)” value [4] was 6.25 µg/mL and the “Minimum inhibitory concentration (MIC)” value [5] was 1.56 µg/mL. The “Minimum inhibitory concentration (MIC)” value [6] was 25 µg/mL, the “Minimum inhibitory concentration (MIC)” value ([7]; medium B-TSA) was 3.13 µg/mL and the “Minimum inhibitory concentration (MIC)” value ([7]; medium TSA) was 1.56 µg/mL. The “Minimum inhibitory concentration (MIC)” value [8] was 3.13 µg/mL, the “Minimum inhibitory concentration (MIC)” value [9] was 1.56 µg/mL and the “Minimum inhibitory concentration (MIC)” value [10] was 1.56 µg/mL. For the same compound, the “Minimum inhibitory concentration (MIC)” value [11] was 0.78 µg/mL, the “Minimum inhibitory concentration (MIC)” value (Klebsiella pneumoniae DT) was 1.56 µg/mL and the “Minimum inhibitory concentration (MIC)” value [12] was 1.56 µg/mL. The “Minimum inhibitory concentration (MIC)” value [13] was 6.25 µg/mL, the “Minimum inhibitory concentration (MIC)” value [14] was 6.25 µg/mL and the “Minimum inhibitory concentration (MIC)” value [15] was 1.56 µg/mL. The “Minimum inhibitory concentration (MIC)” value [16] was > 100 µg/mL, the “Minimum inhibitory concentration (MIC)” value [17] was 3.13 µg/mL and the “Minimum inhibitory concentration (MIC)” value (Candida albicans TA) was > 100 µg/mL. For the same compound, the “Minimum inhibitory concentration (MIC)” value [18] was 3.13 µg/mL, the “Minimum inhibitory concentration (MIC)” value [19] was 1.56 µg/mL and the “Minimum inhibitory concentration (MIC)” value [20] was 25 µg/mL.
In the case of `CCN1CCN(C(=O)N[C@@H](C(=O)NC2CN(S(=O)(=O)[O-])C2=O)c2cccs2)C(=O)C1=O.[Na+]` (stereo partly drawn) [Compound F, Sodium 3-[D-2-(4-ethyl-2,3-dioxo-1-piperazinocarboxamido)-2-thienylacetamido]-2-oxoazetidine-1-sulfonate], the “Minimum inhibitory concentration (MIC)” value [1] is reported as 25 µg/mL, the “Minimum inhibitory concentration (MIC)” value (Escherichia coli T-7) is reported as > 100 µg/mL and the “Minimum inhibitory concentration (MIC)” value [2] is reported as 3.13 µg/mL. For the same compound, the “Minimum inhibitory concentration (MIC)” value [3] was > 100 µg/mL, the “Minimum inhibitory concentration (MIC)” value [4] was 50 µg/mL and the “Minimum inhibitory concentration (MIC)” value [5] was 1.56 µg/mL. The “Minimum inhibitory concentration (MIC)” value [6] was 25 µg/mL, the “Minimum inhibitory concentration (MIC)” value ([7]; medium B-TSA) was 6.25 µg/mL and the “Minimum inhibitory concentration (MIC)” value ([7]; medium TSA) was 6.25 µg/mL. The “Minimum inhibitory concentration (MIC)” value [8] was 1.56 µg/mL, the “Minimum inhibitory concentration (MIC)” value [9] was 6.25 µg/mL and the “Minimum inhibitory concentration (MIC)” value [10] was < 0.1 µg/mL. For the same compound, the “Minimum inhibitory concentration (MIC)” value [11] was 0.78 µg/mL, the “Minimum inhibitory concentration (MIC)” value (Klebsiella pneumoniae DT) was 0.2 µg/mL and the “Minimum inhibitory concentration (MIC)” value [12] was 12.5 µg/mL. The “Minimum inhibitory concentration (MIC)” value [13] was 6.25 µg/mL, the “Minimum inhibitory concentration (MIC)” value [14] was 25 µg/mL and the “Minimum inhibitory concentration (MIC)” value [15] was 3.13 µg/mL. The “Minimum inhibitory concentration (MIC)” value (Escherichia coli 0-111) was 0.2 µg/mL, the “Minimum inhibitory concentration (MIC)” value [16] was > 100 µg/mL and the “Minimum inhibitory concentration (MIC)” value [17] was 0.78 µg/mL. For the same compound, the “Minimum inhibitory concentration (MIC)” value (Candida albicans TA) was > 100 µg/mL, the “Minimum inhibitory concentration (MIC)” value [18] was 0.78 µg/mL and the “Minimum inhibitory concentration (MIC)” value [19] was 6.25 µg/mL. The “Minimum inhibitory concentration (MIC)” value [20] was > 100 µg/mL.
